Key:
[1] = test system: PGE2-induced hyperalgesia; assay: PGE2-induced mechanical hyperalgesia, paw-withdrawal threshold; assay type: in vivo, rat; settings: same dose as for epinephrine: BIM 1 µg, WIPTIDE 100 ng
Method: The roles of PKC, protein kinase A ("PKA") and the µ-opioid receptor in mediating epinephrine-induced hyperalgesia were assessed by measuring the effects of: Rp-adenosine 3', 5'-cyclic monophosphate ("Rp-cAMPs") and WIPTIDE, both inhibitors of PKA; SQ22536, an inhibitor of adenylyl cyclase, an enzyme activated by PKA; bisindolymaleimide ("BIM"), a nonselective inhibitor of PKC isozymes; and [D-Ala^2,N-Me-Phe^4,Gly^5-ol]-enkephalin ("DAMGO"), p-opioid receptor agonist. The dose for each inhibitor was 1µg, except for WIPTIDE, which was administered in a 100ng dose. DAMGO was co-injected with epinephrine whereas the other inhibitors were applied 15 minutes prior to epinephrine injection. […] TABLE 1: Percentage decrease in nociceptive threshold in response to epinephrine, PGE2 or isoproterenol (each 100 ng) and effects of DAMGO, SQ22536, BIM, Rp-cAMPs (all 1 µg) or WIPTIDE (0.1 µg). A large numeric value means more hyperalgesia.
For mechanical nociceptive testing, the nociceptive flexion reflex was quantified using an Ugo Basile analgesymeter that applies a constantly increasing force measured in grams (Stoelting, Chicago, IL; K. O. Aley, J. D. Levine, J. Neurosci. 17, 8018-23 (1997)). The mean basal mechanical threshold for rats used in these experiments was 105.3+/-2.8 grams. The effects of hyperalgesia-inducing agents epinephrine (100ng) and PGE2 (100ng) on mechanical nociceptive thresholds were determined by measuring paw withdrawal frequencies at 15, 20, and 25 minutes after administration of the hyperalgesic agent and then calculating the mean of these three readings.

[2] = test system: isoproterenol-induced hyperalgesia; assay: Isoproterenol-induced mechanical hyperalgesia, paw-withdrawal threshold; assay type: in vivo, rat; settings: intradermal; BIM 1 µg, WIPTIDE 100 ng; propranolol dose not given
Method: To examine the role of β-AR in epinephrine-induced hyperalgesia, propranolol, a β-AR antagonist, and isoproterenol, a selective β-AR agonist, were administered by intradermal injection.
The roles of PKC, protein kinase A ("PKA") and the µ-opioid receptor in mediating epinephrine-induced hyperalgesia were assessed by measuring the effects of: Rp-adenosine 3', 5'-cyclic monophosphate ("Rp-cAMPs") and WIPTIDE, both inhibitors of PKA; SQ22536, an inhibitor of adenylyl cyclase, an enzyme activated by PKA; bisindolymaleimide ("BIM"), a nonselective inhibitor of PKC isozymes; and [D-Ala^2,N-Me-Phe^4,Gly^5-ol]-enkephalin ("DAMGO"), p-opioid receptor agonist. The dose for each inhibitor was 1µg, except for WIPTIDE, which was administered in a 100ng dose. […] A large numeric value means more hyperalgesia.

TTX-RINa = assay type: cell-based, rat
[3] = test system: diabetes-induced hyperalgesia; assay: Streptozotocin diabetes model, diabetes-induced hyperalgesia to mechanical stimuli; assay type: in vivo, Sprague-Dawley rats; settings: four weeks after streptozotocin 70 mg/kg; intradermal sterile water then 1 µg
Method: Persons with uncontrolled or poorly controlled diabetes frequently experience hyperalgesia. The role of PKCε in diabetic neuropathy was examined in a model of diabetes in which male Sprague-Dawley rats receive subcutaneous injection of streptozotocin (70 mg/kg), a pancreatic β-cell toxin. These rats display hyperglycemia and glucosuria within 24 hours after the injection and show decreased nociceptive thresholds in response to mechanical stimuli administered by Ugo Basile analgesymeter in the hind paw after one week (Ahlgren, S.C. et al, J. Neurophysiology, 68, 2077-2085 (1992); Ahlgren, S.C. and Levine, J.D., Neuroscience 52, 1049-1055 (1993)). Four weeks after the streptozotocin injection, each rat received no treatment (n=8) or an intradermal injection of sterile water followed by a intradermal injections of (1) 1 µg bisindolymaleimide, a protein kinase C inhibitor (n=4; labeled "BIM" on Figure 12B), (2) 1 µg εV1-2, a PKCε inhibitory peptide (n=8; labeled "PKCεI" on Figure 12B), or (3) 1 µg S-VεV1-2, a scrambled version of the εV1-2 peptide (n=4; labeled "PCKε1 SCR" on Figure 12B) and were subsequently exposed to mechanical stimuli.

[4] = test system: prolonged PGE2-induced hyperalgesia; assay: Chronic inflammatory pain model: prolonged hyperalgesia in carrageenan-sensitized rats (Randall-Selitto paw-withdrawal test); assay type: in vivo
Excerpt: In order to investigate the role, if any, of PKCε in chronic inflammatory pain, the following model system for chronic inflammatory pain was developed. Rats received intradermal hind paw injections of carrageenan, an inflammatory agent. […] This was considered an acute response to the carrageenan-induced inflammation. Although administration of Prostaglandin E2 ("PGE2"), 5-hydroxytryptamine ("5-HT," serotonin) or CGS-21680 (an adenosine A2-selective receptor agonist) normally causes untreated rats (that is, rats that have not received carrageenan injections) to experience hyperalgesia lasting up to 6 hours, the hyperalgesia experienced by carrageenan-sensitized rats following administration of any one of these substances lasted up to 24 hours.
The prolonged PGE2-induced hyperalgesia normally seen in carrageenan-sensitized rats was inhibited by administration of BIM or εV1-2.
To examine whether protein kinase C modulates the processes by which a brief inflammatory event causes prolonged hyperalgesia many days later, rats received carrageenan and 1µg BIM injections at the same time. Hyperalgesia was measured 72 hours later, when the rats were treated PGE2. […] Therefore, administration of an inhibitor of PKC either at approximately the same time as the inflammatory agent giving rise to chronic, prolonged hyperalgesia or at about the same time as the hyperalgesia-inducing stimulus can lessen such chronic hyperalgesia.

[5] = 1µM epinephrine with 100µM BIM v. epinephrine alone
[6] = 1µg at the same time as carrageenan

## CN(C)CCCn1cc(C2=C(c3c[nH]c4ccccc34)C(=O)NC2=O)c2ccccc21 [BIM, bisindolymaleimide I]
[1]
  effect on PGE2-induced hyperalgesia: had no effect
[2]
  effect on isoproterenol-induced hyperalgesia: significantly attenuated
TTX-RINa; [5]
  mean peak current increase: 32%
  number of neurons responsive to epinephrine: 5 out of 11
TTX-RINa; 1µM epinephrine, 2µM propranolol, 5µM phentolamine, 100µM Rp-cAMPs, 100µM BIM
  effect on epinephrine-induced potentiation of TTX-RINa: significantly decreased
[3]
  effect on diabetes-induced decrease in nociceptive threshold: markedly reduced
[4]; [6]
  effect on acute hyperalgesia normally induced by carrageenan exposure: attenuated
  effect on prolonged hyperalgesia on PGE2 72 or more hours after carrageenan exposure: attenuated
[4]; 1µg several days after the carrageenan injection, then PGE2
  effect on prolonged PGE2-induced hyperalgesia in carrageenan-sensitized rats: inhibited

From patent publication EP1093379B1, “USE OF INHIBITORS OF PROTEIN KINASE C EPSILON TO TREAT PAIN” (The Regents of the University of California, priority 1998, dated 2007)
